Results as given in patent US20190330224A1, “ACC INHIBITORS AND USES THEREOF” (Gilead Apollo, LLC, priority 2015, published 2019).
≈ marks a conversion by molar mass, not a printed value.

What was measured:
[1] = compound concentration 10 ppm, foliar spray, evaluated 7 days after inoculation
Human ACC2 = Human ACC2 (Homo sapiens, UniProt O00763); assay: In vitro ACC2 inhibition assay (ADP-Glo), human ACC2; assay type: biochemical; conditions: 5 nM ACC2, 20 μM ATP, 20 μM acetyl-CoA
C. albicans ATCC 90028 = assay: Anti-Fungal Activity Assay (broth microtiter MIC), C. albicans; assay type: cell-based, Candida albicans; conditions: Candida albicans, ATCC90028, 48 h, 3 replicates; MIC recorded at 48 h; read-out: MIC C. albicans ATCC 90028
Outline: (§1)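 Susceptibility testing used direct colony suspensions in RPMI 1640+MOPS from Sabouraud dextrose agar grown at 35° C. Endpoints were visual MICs at 48 h under CLSI M27-A3 microtiter conditions, plus a 24 h reading for soraphen.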

C. krusei ATCC 6258 = assay: Anti-Fungal Activity Assay (broth microtiter MIC), C. krusei; assay type: cell-based, Candida krusei; conditions: Pichia kudriavzevii, ATCC6258, 48 h, 3 replicates; MIC recorded at 48 h; read-out: MIC C. krusei ATCC 6258
Outline: as §1

[2] = test system: C. parapsilosis ATCC 22019; assay: Anti-Fungal Activity Assay (broth microtiter MIC), C. parapsilosis; assay type: cell-based, Candida parapsilosis; conditions: Lodderomyces parapsilosis, ATCC22019, 48 h, 3 replicates; MIC recorded at 48 h; read-out: MIC C. parapsilosis ATCC 22019
Outline: as §1

Botrtyis cinerea (Bc) = assay: Growth inhibition assay of fungal pathogens, Bc; assay type: cell-based; conditions: 48 hours; read-out: Concentration at 90% Inhibition, Bc
Method: (§2) Compounds of the present invention were evaluated in a growth inhibition assay to determine the ability to control the growth of fungal pathogens, such as Botrtyis cinerea (Bc). Collectotrichum graminicola (Cg), Diplodia maydis (Dm), Fusarium moniliforme (Fm), Fusarium virguliforme (Fv), Phytophthora capsici (Pc), Rhizoctonia solani (Rs), and Septoria tritici (St). Compounds to be tested were dissolved in DMSO at 2.5 mg/ml to produce compound stock solutions (“stocks”). Stocks were diluted with DMSO by a five-fold dilution in a 96-well stock plate, and two sets of final concentrations of 50, 10, and 2 ppm or 2, 0.4, and 0.08 ppm were obtained in vitro. A set of positive controls was also prepared, with various concentrations of Soraphen (2, 0.4, and 0.08 ppm), Metalaxyl (1.1, 0.22, and 0.04 ppm), and Metconazole (2, 0.4, and 0.08 ppm or 0.2, 0.04, and 0.008 ppm) after the five-fold dilutions. Negative controls on each plate included 2% DMSO, water, and a blank (media+2% DMSO). Fungal spores were isolated from previously sub-cultured plates of Botrtyis cinerea (Bc), Collectotrichum graminicola (Cg), Diplodia maydis (Dm), Fusarium moniliforme (Fm), Fusarium virguliforme (Fv), Phytophthora capsici (Pc), and Septoria tritici (St). The isolated spores were diluted to individual concentrations with a 17% V8 liquid media. For Rhizoctonia solani (Rs) and Pythium irregulare, 1.5 mm mycelial plugs were used in place of spores and ¼ Potato Dextrose Broth (PDB) was used for dilution. The spore concentrations and plug sizes were based on growth curves generated at 48 hours for each pathogen. In a second 96-well plate, the spores or mycelial plugs, media, diluted compound solutions, and controls were combined. Once the compound was added, a true final concentration of compound in each well was measured by an OD600 reading, which adjusted for any compound precipitation that might have occurred in the well. Plate readings were repeated at both 24 and 48 hours. The blank negative control was used as a background subtraction. Additional visual ratings were performed at both 24 and 48 hours for checking on precipitation and confirming efficacy. Visual and OD600 ratings of the compounds at 48 hours were compared to the 2% DMSO negative control, and the percent of pathogen growth inhibition was determined based on those values.

[3] = test system: Collectotrichum graminicola (Cg); assay: Growth inhibition assay of fungal pathogens, Cg; assay type: cell-based; conditions: 48 hours; read-out: Concentration at 90% Inhibition, Cg
Method: as §2

Diplodia maydis (Dm) = assay: Growth inhibition assay of fungal pathogens, Dm; assay type: cell-based; conditions: Stenocarpella maydis; 48 hours; read-out: Concentration at 90% Inhibition, Dm
Method: as §2

[4] = test system: Fusarium moniliforme (Fm); assay: Growth inhibition assay of fungal pathogens, Fm; assay type: cell-based; conditions: Fusarium verticillioides; 48 hours; read-out: Concentration at 90% Inhibition, Fm
Method: as §2

[5] = test system: Fusarium virguliforme (Fv); assay: Growth inhibition assay of fungal pathogens, Fv; assay type: cell-based; conditions: 48 hours, read-out: Concentration at 90% Inhibition, Fv
Method: as §2

[6] = test system: Phytophthora capsici (Pc); assay: Growth inhibition assay of fungal pathogens, Pc; assay type: cell-based; conditions: 48 hours, read-out: Concentration at 90% Inhibition, Pc
Method: as §2

Rhizoctonia solani (Rs) = assay: Growth inhibition assay of fungal pathogens, Rs; assay type: cell-based; conditions: 48 hours, read-out: Concentration at 90% Inhibition, Rs
Method: as §2

Septoria tritici (St) = assay: Growth inhibition assay of fungal pathogens, St; assay type: cell-based; conditions: Zymoseptoria tritici; 48 hours; read-out: Concentration at 90% Inhibition, St
Method: as §2

[7] = test system: Blumeria graminis f sp. hordei; assay: Foliar protection test, barley powdery mildew control; assay type: in vivo, Blumeria graminis f sp. hordei on Hordeum vulgare cv. Perry; conditions: 168 h, compound concentration 50 ppm, foliar spray, evaluated 7 days after inoculation, read-out: Barley Powdery Mildew Control at 50 ppm
Method: Compounds of the present invention were evaluated in a foliar protection test to determine the ability to control barley powdery mildew. Plants (Hordeum vulgare cv. Perry) were grown for 6 days in 2-inch square pots containing Metromix 200 medium amended with fertilizer. For propagation, plants were maintained in a growth chamber at conditions of 20 to 21° C., 16 hour light cycle, 400 uM of light, 70% humidity, and with sub-irrigation as needed. After inoculation with the pathogen of Blumeria graminis f sp. hordei, plants were kept at conditions of 20 to 22° C., 70% relative humidity, and 200 uM of light to facilitate infection and disease development. At 6 days after planting (1st true leaf fully expanded), the test compounds were dissolved in a solution of 5% acetone and 0.005% Tween 80 surfactant. An atomizer was used for applying the solution onto both sides of the leaves until thoroughly wetted. The amount of the compound applied to the leaves was typically 200, 100, 50, 10, or 2 ppm, but it may vary. At 24 hours after treatment, the plants were moved to a cooler chamber and inoculated by shaking well-colonized, untreated stock plants above the treated plants. This allowed producing a settling cloud of spores and resulting in uniform infection. Efficacy was evaluated in 7 days later by examining leaves for colonization and growth of mildew. Table 5 lists the results of barley powdery mildew control at a compound concentration of 50 ppm or 10 ppm. Compounds having an activity designated as “AA” provided a compound having >85% control of barley powdery mildew; compounds having an activity designated as “A” provided a compound having from 70% to 84% control of barley powdery mildew; compounds having an activity designated as “B” provided a compound having from 50 to 69% control of barley powdery mildew; compounds having an activity designated as “C” provided a compound having from 25 to 49% control of barley powdery mildew; and compounds having an activity designated as “D” provided a compound having <25% control of barley powdery mildew.

Fungal ACC2 = Fungal ACC2 (UniProt Q00955); conditions: read-out: Fungal ACC2 (IC50, in vitro ACC2 inhibition)
Fungal ACC2, sequence (Q00955 whole entry): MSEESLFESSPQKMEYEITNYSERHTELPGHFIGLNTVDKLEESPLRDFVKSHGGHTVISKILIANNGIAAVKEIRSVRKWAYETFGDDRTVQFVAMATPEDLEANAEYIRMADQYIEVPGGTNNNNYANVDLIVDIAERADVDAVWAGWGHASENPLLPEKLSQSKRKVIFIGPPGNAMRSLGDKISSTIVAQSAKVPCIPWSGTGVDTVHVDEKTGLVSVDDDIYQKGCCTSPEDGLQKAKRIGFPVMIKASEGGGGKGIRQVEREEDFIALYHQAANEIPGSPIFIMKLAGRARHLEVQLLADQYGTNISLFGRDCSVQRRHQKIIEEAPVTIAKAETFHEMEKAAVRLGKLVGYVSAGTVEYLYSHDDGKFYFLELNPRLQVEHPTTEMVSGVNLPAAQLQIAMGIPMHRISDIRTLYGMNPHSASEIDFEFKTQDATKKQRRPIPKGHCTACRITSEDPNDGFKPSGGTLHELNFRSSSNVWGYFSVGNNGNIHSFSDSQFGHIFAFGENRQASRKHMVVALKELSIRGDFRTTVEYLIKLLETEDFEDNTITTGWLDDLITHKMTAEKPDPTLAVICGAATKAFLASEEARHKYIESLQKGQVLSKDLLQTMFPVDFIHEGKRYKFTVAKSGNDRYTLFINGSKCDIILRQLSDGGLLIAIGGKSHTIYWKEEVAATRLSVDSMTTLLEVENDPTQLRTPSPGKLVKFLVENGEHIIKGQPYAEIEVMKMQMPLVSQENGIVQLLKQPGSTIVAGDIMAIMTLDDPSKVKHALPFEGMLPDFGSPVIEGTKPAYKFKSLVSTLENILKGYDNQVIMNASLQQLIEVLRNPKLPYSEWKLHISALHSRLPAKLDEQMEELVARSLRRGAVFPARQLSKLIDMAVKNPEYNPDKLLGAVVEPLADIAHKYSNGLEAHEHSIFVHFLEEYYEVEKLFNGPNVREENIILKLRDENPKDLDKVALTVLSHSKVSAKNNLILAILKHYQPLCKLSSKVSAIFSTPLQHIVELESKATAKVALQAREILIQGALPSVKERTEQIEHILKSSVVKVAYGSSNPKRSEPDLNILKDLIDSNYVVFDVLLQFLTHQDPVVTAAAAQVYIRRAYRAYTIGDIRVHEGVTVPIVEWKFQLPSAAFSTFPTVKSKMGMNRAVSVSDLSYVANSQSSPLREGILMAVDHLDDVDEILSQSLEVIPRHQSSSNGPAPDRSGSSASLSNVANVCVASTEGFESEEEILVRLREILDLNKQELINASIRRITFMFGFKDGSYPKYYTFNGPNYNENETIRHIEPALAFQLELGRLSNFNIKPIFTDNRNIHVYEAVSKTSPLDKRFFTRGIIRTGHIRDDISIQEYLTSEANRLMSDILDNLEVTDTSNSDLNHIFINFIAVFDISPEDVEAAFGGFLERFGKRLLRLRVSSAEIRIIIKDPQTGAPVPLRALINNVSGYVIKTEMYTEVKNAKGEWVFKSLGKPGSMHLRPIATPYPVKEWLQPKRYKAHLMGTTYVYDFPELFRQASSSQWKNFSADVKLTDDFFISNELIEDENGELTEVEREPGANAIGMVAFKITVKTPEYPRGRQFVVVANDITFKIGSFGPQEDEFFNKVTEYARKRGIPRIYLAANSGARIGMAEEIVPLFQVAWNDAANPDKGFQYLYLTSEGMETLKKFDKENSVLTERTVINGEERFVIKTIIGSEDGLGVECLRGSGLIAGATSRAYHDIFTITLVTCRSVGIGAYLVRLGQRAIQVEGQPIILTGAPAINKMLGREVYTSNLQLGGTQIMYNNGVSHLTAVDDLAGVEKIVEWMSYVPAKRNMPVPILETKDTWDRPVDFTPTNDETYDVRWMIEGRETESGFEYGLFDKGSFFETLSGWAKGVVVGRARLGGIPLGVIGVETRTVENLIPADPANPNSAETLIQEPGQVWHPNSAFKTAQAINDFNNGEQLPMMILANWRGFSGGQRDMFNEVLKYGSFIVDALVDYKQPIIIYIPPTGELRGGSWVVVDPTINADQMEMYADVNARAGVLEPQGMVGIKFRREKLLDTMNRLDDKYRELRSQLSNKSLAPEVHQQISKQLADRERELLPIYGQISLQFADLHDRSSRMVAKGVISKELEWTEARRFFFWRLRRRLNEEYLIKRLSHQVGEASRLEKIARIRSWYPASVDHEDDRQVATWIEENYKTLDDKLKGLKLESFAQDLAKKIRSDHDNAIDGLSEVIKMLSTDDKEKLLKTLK

Human ACC2, sequence (O00763 whole entry): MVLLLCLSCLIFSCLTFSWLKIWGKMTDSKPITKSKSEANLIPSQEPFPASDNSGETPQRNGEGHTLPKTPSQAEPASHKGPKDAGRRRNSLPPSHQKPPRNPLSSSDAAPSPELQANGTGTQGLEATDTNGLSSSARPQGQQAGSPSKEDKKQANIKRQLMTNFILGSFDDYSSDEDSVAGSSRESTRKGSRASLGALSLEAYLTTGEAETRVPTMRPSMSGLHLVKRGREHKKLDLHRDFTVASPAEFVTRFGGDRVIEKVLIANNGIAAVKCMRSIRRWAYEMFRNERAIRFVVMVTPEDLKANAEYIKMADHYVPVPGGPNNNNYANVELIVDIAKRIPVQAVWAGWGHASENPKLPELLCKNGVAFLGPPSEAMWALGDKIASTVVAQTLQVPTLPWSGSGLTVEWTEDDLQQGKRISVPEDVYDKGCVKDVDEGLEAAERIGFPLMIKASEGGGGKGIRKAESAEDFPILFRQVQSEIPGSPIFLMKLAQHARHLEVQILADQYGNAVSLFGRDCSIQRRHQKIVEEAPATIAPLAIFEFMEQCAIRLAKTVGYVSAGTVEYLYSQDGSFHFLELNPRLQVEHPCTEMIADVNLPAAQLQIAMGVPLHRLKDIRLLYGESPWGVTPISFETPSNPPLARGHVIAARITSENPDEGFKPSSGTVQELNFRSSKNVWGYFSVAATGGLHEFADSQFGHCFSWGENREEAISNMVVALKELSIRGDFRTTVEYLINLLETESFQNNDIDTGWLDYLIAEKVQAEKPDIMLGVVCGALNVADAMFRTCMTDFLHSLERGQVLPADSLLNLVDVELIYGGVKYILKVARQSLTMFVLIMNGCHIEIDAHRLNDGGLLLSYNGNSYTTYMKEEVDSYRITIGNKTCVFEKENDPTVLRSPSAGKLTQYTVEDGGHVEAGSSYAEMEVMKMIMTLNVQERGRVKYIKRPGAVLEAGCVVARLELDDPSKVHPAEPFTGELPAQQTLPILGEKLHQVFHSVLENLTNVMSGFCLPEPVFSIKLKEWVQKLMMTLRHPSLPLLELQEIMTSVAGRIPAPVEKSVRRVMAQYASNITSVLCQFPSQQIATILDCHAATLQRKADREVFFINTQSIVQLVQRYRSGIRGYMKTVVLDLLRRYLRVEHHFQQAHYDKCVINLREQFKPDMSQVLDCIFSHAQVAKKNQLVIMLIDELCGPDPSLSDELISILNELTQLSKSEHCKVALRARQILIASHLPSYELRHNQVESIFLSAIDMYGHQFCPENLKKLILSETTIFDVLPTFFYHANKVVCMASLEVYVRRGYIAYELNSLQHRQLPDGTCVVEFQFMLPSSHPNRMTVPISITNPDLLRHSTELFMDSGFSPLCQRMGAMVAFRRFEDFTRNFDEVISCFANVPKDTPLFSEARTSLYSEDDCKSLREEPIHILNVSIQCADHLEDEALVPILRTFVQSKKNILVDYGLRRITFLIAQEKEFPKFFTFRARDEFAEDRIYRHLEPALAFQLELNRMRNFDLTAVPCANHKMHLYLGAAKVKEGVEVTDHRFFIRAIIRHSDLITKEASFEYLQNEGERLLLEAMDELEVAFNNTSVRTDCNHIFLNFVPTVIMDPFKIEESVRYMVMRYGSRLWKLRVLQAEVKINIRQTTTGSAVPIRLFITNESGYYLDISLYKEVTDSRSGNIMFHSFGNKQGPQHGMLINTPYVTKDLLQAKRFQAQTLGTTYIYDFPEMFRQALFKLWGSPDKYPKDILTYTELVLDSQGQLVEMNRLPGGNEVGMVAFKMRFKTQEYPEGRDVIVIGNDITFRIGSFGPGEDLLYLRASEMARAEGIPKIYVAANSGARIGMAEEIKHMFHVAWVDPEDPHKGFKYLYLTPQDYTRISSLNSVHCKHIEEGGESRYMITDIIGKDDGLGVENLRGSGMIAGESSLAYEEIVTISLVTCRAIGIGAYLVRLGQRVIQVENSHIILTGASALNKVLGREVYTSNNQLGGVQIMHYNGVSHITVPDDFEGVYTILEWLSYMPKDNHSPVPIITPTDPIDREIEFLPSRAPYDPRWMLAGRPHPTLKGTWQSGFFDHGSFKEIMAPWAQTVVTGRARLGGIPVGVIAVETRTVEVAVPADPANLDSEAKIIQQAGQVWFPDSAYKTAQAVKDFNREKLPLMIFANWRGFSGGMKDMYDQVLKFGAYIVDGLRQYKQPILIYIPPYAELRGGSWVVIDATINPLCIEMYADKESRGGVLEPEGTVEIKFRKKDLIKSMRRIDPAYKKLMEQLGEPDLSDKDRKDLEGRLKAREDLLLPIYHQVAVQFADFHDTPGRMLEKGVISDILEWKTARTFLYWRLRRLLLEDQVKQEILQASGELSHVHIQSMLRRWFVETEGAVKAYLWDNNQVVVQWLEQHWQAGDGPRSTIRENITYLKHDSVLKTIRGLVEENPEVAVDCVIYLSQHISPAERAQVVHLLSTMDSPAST

| SMILES | Barley Powdery Mildew Control at 10 ppm [1] | IC50 (Human ACC2) [nM] | MIC (C. albicans ATCC 90028) [µg/mL] | MIC (C. krusei ATCC 6258) [µg/mL] | MIC [2] [µg/mL] | IC90 (Botrtyis cinerea (Bc)) [µg/mL] | IC90 [3] [µg/mL] | IC90 (Diplodia maydis (Dm)) [µg/mL] | IC90 [4] [µg/mL] | IC90 [5] [µg/mL] | IC90 [6] [µg/mL] | IC90 (Rhizoctonia solani (Rs)) [µg/mL] | IC90 (Septoria tritici (St)) [µg/mL] | pest or weed control at 50 ppm [7] [%] | IC50 (Fungal ACC2) [nM] |
| --- | --- | --- | --- | --- | --- | --- | --- | --- | --- | --- | --- | --- | --- | --- | --- |
| COCCO[C@@H](Cn1c(=O)n([C@H]2CCN(C)C2=O)c(=O)c2c(C)c(-n3nccn3)sc21)c1cc(F)ccc1OC [Compound I-27, 1-((R)-2-(5-fluoro-2-methoxyphenyl)-2-(2-methoxy-ethoxy)ethyl)-5-methyl-3-((S)-1-methyl-2-oxopyrrolidin-3-yl)-6-(2H-1,2,3-triazol-2-yl)thieno[2,3-d]pyrimidine-2,4(1H,3H)-dione] | D (provided a compound having <25% control of barley powdery mildew) | 10 to 100 | 2.1 to 4 (≈ 3.67 to 6.99 µM) | 2.1 to 4 (≈ 3.67 to 6.99 µM) | 2.1 to 4 (≈ 3.67 to 6.99 µM) | 2 (≈ 3.49 µM) | > 50 | > 50 | 2 (≈ 3.49 µM) | 10 (≈ 17.5 µM) | > 50 | > 50 | > 50 | 50 to 69 | 2 to 10 |
| COCCO[C@@H](Cn1c(=O)n([C@H]2CCNC2=O)c(=O)c2c(C)c(-n3cccn3)sc21)c1cc(F)ccc1OC [Compound I-41, 1-((R)-2-(5-fluoro-2-methoxyphenyl)-2-(2-methoxy-ethoxy)ethyl)-5-methyl-3-((S)-2-oxopyrrolidin-3-yl)-6-(I H-pyrazol-1-yl)thieno[2,3-d]pyrimidine-2,4(1H,3H)-dione] | D (provided a compound having <25% control of barley powdery mildew) | – | 2.1 to 4 (≈ 3.77 to 7.17 µM) | 2.1 to 4 (≈ 3.77 to 7.17 µM) | 2.1 to 4 (≈ 3.77 to 7.17 µM) | > 50 | > 50 | > 50 | > 50 | > 50 | > 50 | > 50 | > 50 | 25 to 49 | 10 to 100 |
| COCCO[C@@H](Cn1c(=O)n([C@H]2CCN(C)C2=O)c(=O)c2c(C)c(-n3cccn3)sc21)c1cc(F)ccc1OC [Compound I-43, 1-((R)-2-(5-fluoro-2-methoxyphenyl)-2-(2-methoxy-ethoxy)ethyl)-5-methyl-3-((S)-1-methyl-2-oxopyrrolidin-3-yl)-6-(1H-pyrazol-1-yl)thieno[2,3-d]pyrimidine-2,4(1H,3H)-dione] | D (provided a compound having <25% control of barley powdery mildew) | – | 2.1 to 4 (≈ 3.67 to 7 µM) | 2.1 to 4 (≈ 3.67 to 7 µM) | 2.1 to 4 (≈ 3.67 to 7 µM) | > 50 | > 50 | > 50 | > 50 | > 50 | > 50 | > 50 | > 50 | 70 to 84 | 10 to 100 |
| COc1ccc(F)cc1[C@H](Cn1c(=O)n([C@@H]2CCNC2=O)c(=O)c2c(C)c(-n3nccn3)sc21)OCCO [Compound I-81, 1-((R)-2-(5-fluoro-2-methoxyphenyl)-2-(2-hydroxy-ethoxy)ethyl)-5-methyl-3-((R)-2-oxopyrrolidin-3-yl)-6-(2H-1,2,3-triazol-2-yl)thieno[2,3-d]pyrimidine-2,4(1H,3H)-dione] | D (provided a compound having <25% control of barley powdery mildew) | 2 to 10 | – | – | – | 2 (≈ 3.67 µM) | 10 (≈ 18.4 µM) | 10 (≈ 18.4 µM) | 2 (≈ 3.67 µM) | 2 (≈ 3.67 µM) | 10 (≈ 18.4 µM) | 10 (≈ 18.4 µM) | > 50 | 25 to 49 | 0.7 to 2 |
| COc1ccc(F)cc1[C@H](Cn1c(=O)n([C@@H]2CCNC2=O)c(=O)c2c(C)c(-n3nccn3)sc21)OCCC#N [Compound I-107, 3-((R)-1-(5-fluoro-2-methoxyphenyl)-2-(5-methyl-2,4-dioxo-3-((R)-2-oxopyrrolidin-3-yl)-6-(2H-1,2,3-triazol-2-yl)-3,4-dihydrothieno[2,3-d]pyrimidin-1(2H)-yl)ethoxy)propanenitrile] | C (provided a compound having from 25 to 49% control of barley powdery mildew) | 2 to 10 | – | – | – | 2 (≈ 3.61 µM) | 10 (≈ 18.1 µM) | 10 (≈ 18.1 µM) | 2 (≈ 3.61 µM) | 2 (≈ 3.61 µM) | > 50 | 2 (≈ 3.61 µM) | > 50 | 50 to 69 | 0.7 to 2 |
| COc1ccc(F)cc1[C@H](Cn1c(=O)n([C@@H]2CCCNC2=O)c(=O)c2c(C)c(-n3nccn3)sc21)OCCC(=O)O [Compound I-178, 3-((R)-1-(5-fluoro-2-methoxyphenyl)-2-(5-methyl-2,4-dioxo-3-((R)-2-oxopiperidin-3-yl)-6-(2H-1,2,3-triazol-2-yl)-3,4-dihydrothieno[2,3-d]pyrimidin-1(2H)-yl)ethoxy)propanoic acid] | D (provided a compound having <25% control of barley powdery mildew) | 10 to 100 | – | – | – | > 50 | 10 (≈ 17 µM) | > 50 | 10 (≈ 17 µM) | > 50 | > 50 | 2 (≈ 3.41 µM) | > 50 | 25 to 49 | 0.7 to 2 |
